Assay results taken from ChEMBL document CHEMBL5137008, “Recent advances of antitumor shikonin/alkannin derivatives: A comprehensive overview focusing on structural classification, synthetic approaches, and mechanisms of action” (Eur J Med Chem, 2022).

Legend:
[1] = Cytotoxicity against human MCF-10A assessed as inhibition of cell growth incubated for 24 hrs in presence of foetal bovine serum by MTT assay; format: toxicity, cell-based; details: MCF-10A cells
HepG2 [2] = assay: Antiproliferative activity against human HepG2 cells assessed as inhibition of cell proliferation incubated for 20 hrs by MTT assay; format: functional, cell-based; details: HepG2, 20 h
[3] = Cytotoxicity against human MCF-10A cells assessed as inhibition of cell proliferation incubated for 24 hrs by CCK-8 assay; format: toxicity, cell-based
MCF7 [4] = assay: Antiproliferative activity against human MCF7 cells assessed as inhibition of cell proliferation incubated for 20 hrs by MTT assay; format: functional, cell-based; details: MCF7, 20 h
HeLa [5] = assay: Antiproliferative activity against human HeLa cells assessed as inhibition of cell proliferation incubated for 24 hrs by MTT assay; format: functional, cell-based
HeLa [6] = assay: Antiproliferative activity against human HeLa cells assessed as inhibition of cell proliferation incubated for 20 hrs by MTT assay; format: functional, cell-based
A549 = assay: Antiproliferative activity against human A549 cells assessed as inhibition of cell growth incubated for 24 hrs in presence of foetal bovine serum by MTT assay; format: functional, cell-based; details: A549, 24 h
MDA-MB-231 [7] = assay: Antiproliferative activity against human MDA-MB-231 cells assessed as inhibition of cell proliferation incubated for 24 hrs by CCK-8 assay; format: functional, cell-based; details: MDA-MB-231, 24 h
HepG2 [8] = assay: Antiproliferative activity against human HepG2 cells incubated for 24 hrs by MTT assay; format: functional, cell-based; details: HepG2, 24 h
[9] = Antitubulin activity against bovine brain tubulin polymerization preincubated with compound followed by GTP addition and measured after 20 mins by turbidimetry-based spectrophotometric method; design: species or system Bos taurus
MDA-MB-231 [10] = assay: Antiproliferative activity against human MDA-MB-231 cells assessed as inhibition of cell growth incubated for 24 hrs in presence of foetal bovine serum by MTT assay; format: functional, cell-based; details: MDA-MB-231, 24 h
MCF7 [11] = assay: Antiproliferative activity against human MCF7 cells assessed as inhibition of cell growth incubated for 24 hrs by MTT assay; format: functional, cell-based; details: MCF7, 24 h
HeLa [12] = assay: cells; details: Homo sapiens, 24 h
MGC-803 = assay: Anticancer activity against human MGC-803 cells incubated for 72 hrs by MTT assay; format: functional, cell-based; details: MGC-803, 72 h
[13] = Cytotoxicity against human L02 cells assessed as reduction in cell viability incubated for 24 hrs by MTT assay; format: toxicity, cell-based
Fibroblast = assay: Cytotoxicity against human skin fibroblast cells incubated for 72 hrs by MTT assay; format: functional, cell-based
MCF7 [14] = assay: Antiproliferative activity against human MCF7 cells assessed as inhibition of cell proliferation incubated for 24 hrs by CCK-8 assay; format: functional, cell-based; details: MCF7, 24 h

Structure (SMILES): CC(C)=CC[C@@H](O)C1=CC(=O)c2c(O)ccc(O)c2C1=O [SHIKONIN]
- IC50 at 24 h [1]: 23.5 µM
- IC50 (HepG2 [2]): 920 nM
- IC50 at 24 h [3]: 20.9 µM
- IC50 (MCF7 [4]): 1030 nM
- IC50 (HeLa [5]): 5.75 µM
- IC50 (HeLa [6]): 3.11 µM
- IC50 (A549): 11.7 µM
- IC50 (MDA-MB-231 [7]): 7.62 µM
- IC50 (HepG2 [8]): 2730 nM
- IC50 [9]: 15.2 µM
- IC50 (MDA-MB-231 [10]): 2880 nM
- IC50 (MCF7 [11]): 7.75 µM
- IC50 (HeLa [12]): 4.8 µM
- IC50 (MGC-803): 1280 nM
- IC50 at 24 h [13]: 10.5 µM
- IC50 (Fibroblast): 1240 nM
- IC50 (MCF7 [14]): 9.32 µM
